Test results: patent US8148368B2, “7-nitro-2-(3-nitro phenyl)-4H-3,1-benzoxazin-4-one or derivatives thereof for treating or preventing antiviral infections” (priority 2010, dated 2012)

What was measured:
[1] = system: HCV 3a genotype in MDBK cells; assay: Combination with interferon-α against HCV 3a genotype in MDBK cells, real time quantitative RT-PCR; assay type: cell-based, hepatitis C virus; settings: interferon-α 5 IU/well, 6 hrs pre-incubation, HCV 3a 2×10^4 copies per well, 18 hrs
Experimental: Surprising synergism was recorded when Compound 1 was combined with Interferon alpha. […] MDBK cells were incubated for 6 hrs with compounds and interferon alone, or combination of compound and interferon in a 96-well plat. After 6 hrs cells were infected with 2×10^4 copies of HCV 3a genotype per well and incubated for additional 18 hrs. At the end of incubation period, total RNA was extracted by Gentra kit, and the levels of HCV RNA remaining were determined, by real time Quantitative RT-PCR assay and are shown as percentage of HCV RNA survival in cells. Results are represented as the average and standard error for three independent experiments.

[2] = system: HCV sub-genomic replicon in FCA-4 cells; assay: Antiviral effect in FCA-4 HCV 1b sub-genomic replicon cells, RT-PCR of HCV RNA; assay type: cell-based, hepatitis C virus
From the text: FCA-4 sub genomic replicon was bicistronic construct composed of the HCV IRES (nucleotides 1 to 377 of the 5′NCR); the neomycin phosphotransferase (neo) gene; the encephalomyocarditis IRES, which mediates the translation of HCV nonstructural proteins NS3 through NS5; and the 3′NCR as shown in FIG. 2. […] FCA-4 sub-genomic replicon consists of single adaptive mutation and a deletion of a serine residue at position 1176 (Guo et al, 2001).
The bicistronic RNA molecule contains the HCV IRES and a few core-coding sequences, which are followed by neomycin phosphotransferase gene (Neor). These sequences are followed by the encephalomyocarditis virus IRES placed in front of HCV sequences encoding nonstructural protein NS3 to NS5B, terminating at the HCV 3NCR.
To determine the antiviral effect against HCV, FCA 4 cells were seeded in six well plates. After 24 h, media containing 20 μM of test compound was added to the plates. Cells were incubated at 37° C. in CO2 incubator for additional 48 h. At the end of the incubation, cells were harvested, RNA was extracted and cDNA were generated by oligo dT priming cDNA was amplified by PCR using primers specific to the 5′ UTR and NS5B gene of HCV. Amplification of GAPDH mRNA served as an internal control.

[3] = system: HCV; settings: ribavirin alone; cited from earlier work

## O=c1oc(-c2cccc([N+](=O)[O-])c2)nc2cc([N+](=O)[O-])ccc12 [Compound 1, 7-nitro-2-(3-nitrophenyl)-4H-3,1-benzoxazin-4-one]
[1]
  effect of combination with interferon-α on HCV RNA: synergistic effect
[2]; 20 μM, 48 h, FCA 4 cells
  GAPDH mRNA expression (internal control): remains unaffected
[2]; 20 μM, 48 h, FCA 4 cells, RT-PCR (5′ UTR and NS5B primers)
  HCV RNA expression: inhibited HCV RNA expression significantly
[2]; FCA4 cells
  antiviral suppression in relation to cytotoxicity: independent of cytotoxicity
[2]; dose dependent, FCA4 sub-genomic replicon, 48 h, FIG. 3
  concentration showing maximum reduction of HCV expression: 10 µM

## NC(=O)c1ncn([C@@H]2O[C@H](CO)[C@@H](O)[C@H]2O)n1 [Ribavirin, 1-β-D-ribofuranosyl-1-1,2,4-triazole-3-carboxamide]
[3]
  patients with serum amino transferase levels reduced to normal: 40%
